{"source": "patent US20250352653A1", "about": "“NEURON TARGETED 2-DEOXYGLUCOSE DENDRIMER FOR IMAGING AND TREATMENT OF NEUROLOGICAL DISEASES” (Washington State University, priority 2024, published 2025)", "key": {"[1]": {"conditions": "free drug; cited from earlier work"}, "[2]": {"tested_on": "CATH.a cells", "test": "Annexin V/propidium iodide assay", "format": "cell-based", "conditions": "250 μg/mL", "experimental": "Apoptosis/necrosis was assessed in CATH.a cells using the FITC ApoScreen® Annexin V Apoptosis Kit. Cells were pre-treated with LPS (1 μg/mL) and H2O2 (100 μM) for 6 hours to mimic TBI-like conditions, followed by 2DG-D-Rosi treatment for 24 hours at 37° C., 5% CO2. After incubation, cells were harvested, washed twice with cold PBS, and resuspended in 100 μL of 1× Annexin Binding Buffer. Staining was performed with 10 μL Annexin V-FITC and 10 μL Propidium Iodide (PI) for 15 minutes at 2-8° C. in the dark, followed by dilution with 380 μL 1× Annexin Binding Buffer. Samples were analyzed on an Attune NxT® Flow Cytometer using BL-1 (530/30 nm) for Annexin V-FITC and YL-1 (585/16 nm) for PI. Controls included unstained, Annexin V-only, and PI-only samples. Density plots were generated to classify viable, early apoptotic, necrotic, and late apoptotic/necrotic cells. The experiment was performed in triplicate (n=3), and data was analyzed using GraphPad Prism® with statistical significance determined by a two-tailed t-test."}, "[3]": {"tested_on": "Caspase-3/7", "test": "Caspase-3/7 activity assay", "format": "cell-based", "conditions": "for caspase activity (confocal, ImageJ): control 100%", "experimental": "For flow cytometry, 1×10^5lls per sample were incubated with Pheno Vue® 505 caspase-3/7 stain in fresh medium for 30 minutes, washed with PBS, and analyzed on an Attune NxT® Flow Cytometer using BL-1 (530/30 nm) for caspase activation detection. For confocal microscopy, 2×10^5 cells per well were seeded on poly-L-lysine-coated coverslips, stained with caspase-3/7 reagent, fixed in 4% PFA, permeabilized with 0.1% Triton® X-100, and counterstained with DAPI. Coverslips were mounted with Vectashield Plus® antifade medium and imaged using a Leica SP-5 Confocal Microscope (20× water immersion lens). The experiment was conducted in triplicate (n=3), and statistical significance was determined using GraphPad Prism® with a two-tailed t-test."}, "[4]": {"tested_on": "CATH.a neurons", "test": "MTT cytocompatibility, CATH.a", "format": "cell-based", "conditions": "all tested concentrations, 24 h", "experimental": "(§1) Cytocompatibility studies were carried out using MTT assay as described in our previous work. […] After this, all the treated cells were incubated with MTT for 3 h till the purple-colored formazan crystals appeared. For dissolving these crystals, cell culture grade DMSO was added to each of the wells and incubated for 15 min. Finally, the absorbance was recorded at 570 nm using Synergy H1 hybrid multi-mode microplate. The percentage cytocompatibility was calculated using equation 2. All the measurements were done in triplicates with proper controls."}, "[5]": {"tested_on": "TNF-α", "test": "Quantitative TNF-α ELISA", "format": "cell-based", "conditions": "LPS:H2O2 induced CATH.a, control 1-fold", "experimental": "For determining the effect of 2DG-D-Rosi conjugates on the neuro-inflammation under in vitro conditions, the expression levels of tumor necrosis factor-alpha (TNF-α) and interleukin-6 (IL-6) were analyzed using an enzyme-linked immunosorbent assay (ELISA). The protocol was adapted from previously published literature with slight modifications. Briefly, CATH.a neurons (5×10^4 cells/well) were seeded into 96-well plates and cultured overnight. […] Following the treatment, the consumed culture media was collected and centrifuged at 12,000×g for 10 minutes to remove cellular debris. A 50 μL aliquot of the supernatant was added to ELISA plates pre-coated with primary antibodies for TNF-α and IL-6, respectively, and incubated for approximately 2 h. The cytokine concentrations (pg/mL) were determined using standard calibration curves provided in the ELISA kit, adhering to the manufacturer's instructions. All experiments were performed in triplicates, with appropriate controls."}, "[6]": {"tested_on": "IL-6", "test": "Quantitative IL-6 ELISA", "format": "cell-based", "conditions": "LPS:H2O2 induced CATH.a, control ~1-fold", "experimental": "For determining the effect of 2DG-D-Rosi conjugates on the neuro-inflammation under in vitro conditions, the expression levels of tumor necrosis factor-alpha (TNF-α) and interleukin-6 (IL-6) were analyzed using an enzyme-linked immunosorbent assay (ELISA). The protocol was adapted from previously published literature with slight modifications. Briefly, CATH.a neurons (5×10^4 cells/well) were seeded into 96-well plates and cultured overnight. The cells were pre-treated with lipopolysaccharide (LPS; 1 μg/mL) and hydrogen peroxide (H2O2, 100 μM) and then incubated with 2DG-D-Rosi conjugates at varying concentrations (50, 100, and 250 μg/mL) for 24 hours at 37° C. in a CO2 incubator. Following the treatment, the consumed culture media was collected and centrifuged at 12,000×g for 10 minutes to remove cellular debris. A 50 μL aliquot of the supernatant was added to ELISA plates pre-coated with primary antibodies for TNF-α and IL-6, respectively, and incubated for approximately 2 h. The cytokine concentrations (pg/mL) were determined using standard calibration curves provided in the ELISA kit, adhering to the manufacturer's instructions. All experiments were performed in triplicates, with appropriate controls."}, "[7]": {"test": "Water solubility", "format": "physicochemical", "conditions": "Rosi and its 2DG-D conjugate"}, "[8]": {"tested_on": "CATH.a cells", "test": "JC-1 mitochondrial membrane potential (MMP) assay", "format": "cell-based", "conditions": "for MFI of J-monomers (confocal): control ~141", "experimental": "The JC-1 Mitochondrial Membrane Potential (MMP) Assay was used to assess 2DG-D-Rosi effects on CATH.a cells under TBI-like conditions via flow cytometry and confocal microscopy. Cells were pre-treated with LPS (1 μg/mL) and H2O2 (100 μM), followed by 2DG-D-Rosi treatment for 24 hours at 37° C., 5% CO2. After incubation, cells were stained with 2 μM JC-1 dye for 20 minutes at 37° C. in the dark. For flow cytometry, cells were analyzed on an Attune NxT® Flow Cytometer, with JC-1 monomers (green, depolarized mitochondria) detected in BL-1 (530/30 nm) and J-aggregates (red, polarized mitochondria) in YL-1 (585/16 nm). For confocal microscopy, cells were seeded on poly-L-lysine-coated coverslips, stained with JC-1, counterstained with DAPI, and imaged using a Leica SP-5 Confocal Microscope (20× water immersion magnification). The experiment was conducted in triplicate (n=3), and data were analyzed using GraphPad Prism® with statistical significance determined by a two-tailed t-test."}, "[9]": {"tested_on": "human umbilical vein endothelial cells (HUVECs)", "test": "MTT cytocompatibility, HUVEC", "format": "cell-based", "conditions": "all tested concentrations, 24 h", "experimental": "as §1"}, "[10]": {"tested_on": "EOC 20 microglial cells", "test": "MTT cytocompatibility, EOC 20", "format": "cell-based", "conditions": "all tested concentrations, 24 h", "experimental": "as §1"}, "[11]": {"tested_on": "PPARγ", "test": "PPARγ expression by flow cytometry and immunofluorescence", "format": "cell-based", "conditions": "for PPARγ expression (confocal, ImageJ): LPS:H2O2 group 1-fold", "experimental": "For flow cytometry, 1×10^5 cells per sample were fixed in 4% PFA, permeabilized with 0.2% Triton® X-100, blocked with 3% BSA, and incubated overnight at 4° C. with an anti-PPARγ antibody.\nFor immunofluorescence, 5×10^4 cells per well were grown on poly-L-lysine-coated coverslips, treated, washed, and blocked with 3% BSA, followed by overnight incubation with an anti-PPARγ antibody at 4° C. on a 3D shaker. […] Imaging was performed using a […] SP5 Confocal Microscope (20× water immersion lens). The experiment was conducted in triplicate (n=3), and statistical significance was determined using GraphPad Prism® with a two-tailed t-test."}}}
{"smiles": "CCc1ccc(CCOc2ccc(CC3SC(=O)NC3=O)cc2)nc1", "note": "(stereo not drawn) [Pio, pioglitazone]", "values": [{"measurement": "water solubility of free Pio", "setting": "[1]", "value": 4.42, "unit": "µg/mL"}]}
{"smiles": "CN(CCOc1ccc(CC2SC(=O)NC2=O)cc1)c1ccccn1", "note": "(stereo not drawn) [Rosi, rosiglitazone]", "values": [{"measurement": "necrosis", "setting": "[2]; LPS:H2O2 treated CATH.a (~31.07%)", "value": "~1.67", "unit": "%"}, {"measurement": "apoptosis", "setting": "[2]; LPS:H2O2 treated CATH.a", "value": "~54.6", "unit": "%"}, {"measurement": "caspase activity (confocal, ImageJ)", "setting": "[3]; 50 μg/mL", "value": "~75", "unit": "%"}, {"measurement": "caspase activity (confocal, ImageJ)", "setting": "[3]; 100 μg/mL", "value": "~63", "unit": "%"}, {"measurement": "caspase activity (confocal, ImageJ)", "setting": "[3]; 250 μg/mL", "value": "~68", "unit": "%"}, {"measurement": "lowering of caspase activity", "setting": "[3]; free Rosi vs LPS:H2O2, flow cytometry", "value": "~70", "unit": "%"}, {"measurement": "cytotoxicity (MTT)", "setting": "[4]", "value": "No toxic effects"}, {"measurement": "TNF-α levels", "setting": "[5]; 100 μg/mL", "value": 0.91, "unit": "fold"}, {"measurement": "TNF-α levels", "setting": "[5]; 250 μg/mL", "value": 0.85, "unit": "fold"}, {"measurement": "TNF-α levels", "setting": "[5]; 500 μg/mL", "value": 0.77, "unit": "fold"}, {"measurement": "IL-6 levels", "setting": "[6]; 50 μg/mL", "value": 0.88, "unit": "fold"}, {"measurement": "IL-6 levels", "setting": "[6]; 100 μg/mL", "value": 0.86, "unit": "fold"}, {"measurement": "IL-6 levels", "setting": "[6]; 250 μg/mL", "value": 0.67, "unit": "fold"}, {"measurement": "solubility in water", "setting": "[7]", "value": "sparingly soluble"}, {"measurement": "MFI of J-monomers (confocal)", "setting": "[8]; 50 μg/mL", "value": "~89"}, {"measurement": "MFI of J-monomers (confocal)", "setting": "[8]; 100 μg/mL", "value": 74}, {"measurement": "MFI of J-aggregates (red fluorescence)", "setting": "[8]; 250 μg/mL, LPS:H2O2 group ~2.7", "value": "~78.1"}, {"measurement": "MFI of J-monomers (confocal)", "setting": "[8]; 250 μg/mL", "value": 72}, {"measurement": "healthy mitochondria, flow cytometry", "setting": "[8]; LPS+H2O2 ~0.24%, 2DG-D and Rosi at 250", "value": "~21.54", "unit": "%"}, {"measurement": "depolarized mitochondria (J-Mon+/J-Agg-), flow cytometry", "setting": "[8]; LPS+H2O2 ~95.13%, 2DG-D and Rosi at 250", "value": "~69.73", "unit": "%"}, {"measurement": "cytotoxicity (MTT)", "setting": "[9]", "value": "No toxic effects"}, {"measurement": "cytotoxicity (MTT)", "setting": "[10]", "value": "No toxic effects"}, {"measurement": "PPARγ expression (confocal, ImageJ)", "setting": "[11]; 50 μg/mL", "value": 1.82, "unit": "fold"}, {"measurement": "PPARγ expression (confocal, ImageJ)", "setting": "[11]; 100 μg/mL", "value": 1.79, "unit": "fold"}, {"measurement": "PPARγ expression (confocal, ImageJ)", "setting": "[11]; 250 μg/mL", "value": 1.9, "unit": "fold"}, {"measurement": "PPARγ expression MFI (flow cytometry)", "setting": "[11]; LPS+H2O2 ~206, untreated ~112", "value": "~556"}]}
